Laboratory results published in ChEMBL document CHEMBL1821652, “QSAR models for predicting enzymatic hydrolysis of new chemical entities in 'soft-drug' design” (Bioorg Med Chem, 2009).

Tested on: Plasma
Assay: Half life in human plasma
Format: ADME, cell-free

Compound: COC(=O)[C@H](Cc1ccc(OC(C)=O)c(OC(C)=O)c1)NC(=O)CCCCC(=O)N[C@@H](Cc1ccc(OC(C)=O)c(OC(C)=O)c1)C(=O)OC
- t1/2: 0.13 h

Compound: COC(=O)[C@H](Cc1ccc(OC(C)=O)c(OC(C)=O)c1)NC(=O)CCCC(=O)N[C@@H](Cc1ccc(OC(C)=O)c(OC(C)=O)c1)C(=O)OC
- t1/2: 1.05 h

Compound: COC(=O)[C@H](Cc1ccc(OC(C)=O)c(OC(C)=O)c1)NC(=O)CCC(=O)N[C@@H](Cc1ccc(OC(C)=O)c(OC(C)=O)c1)C(=O)OC
- t1/2: 0.232 h

Compound: CC(C)[C@H](N)C(=O)OCCOCn1cnc2c(=O)[nH]c(N)nc21 (stereo in doubt; 167) [VALACYCLOVIR]
- t1/2: 7.13 h

Compound: COC(=O)[C@H](Cc1ccc(OC(C)=O)c(OC(C)=O)c1)NC(=O)N[C@@H](Cc1ccc(OC(C)=O)c(OC(C)=O)c1)C(=O)OC
- t1/2: 1.698 h

Compound: CC(C)C[C@H](NC(=O)[C@H](Cc1ccccc1)NC(=O)CNC(=O)CNC(=O)[C@@H](N)Cc1ccc(O)cc1)C(=O)O [ENKEPHALIN]
- t1/2: 13.5 h

Compound: CC(C)[N+](C)(CCOC(=O)C1c2ccccc2Oc2ccccc21)C(C)C [PROPANTHELINE]
- t1/2: 6.17 h
